{"source": "patent US11524950B2", "about": "“Treatment of immune-related and inflammatory diseases” (Celgene Corporation, priority 2012, dated 2022)", "key": {"[1]": {"test_system": "CD19+ B cells", "experiment": "B cell differentiation assay: CD20/CD38 phenotyping by flow cytometry", "assay_type": "cell-based, human", "conditions": "for CD20−CD38++ plasmablasts/plasma cells, % / CD20+CD38− activated B cells, % / CD20+CD38+ intermediated cells, %: 3 donors; for plasmablast population (CD20-CD38+): day 7, DMSO control 30.4%", "experimental": "Differentiated B cells (see section 8.2.3) were harvested, counted, and aliquoted at about 1×10^6 cells or less per 4 mL tube. The cells were washed 1× with stain buffer. Next, the cells then were blocked with 10% human serum/PBS for 20-30 minutes. Following blocking, the cells were centrifuged for 5 minutes at 1200 rpm and supernatants discarded. In the 100 μL of remaining buffer, 20 μL of various BD Pharmigen flow antibodies were added according to experimental design. The cells were stained for 20-30 minutes at 4° C. Then the cells were washed 2× with stain buffer and supernatants discarded. Next, 500 μL of stain buffer or PBS was added to the tubes. The samples were immediately analyzed or put at 4° C. overnight. Cells were stained with mouse anti-human CD20 and CD38, CD19 and CD27, or respective isotype controls. All samples were analyzed using a FACSCanto flow cytometer, FACSDiva analysis software (BD Bioscience), and FlowJo Analysis software.\n(§1) Immunophenotyping For Flow Cytometric Analysis: Cells were stained using multicolor direct immunofluorescence stain for flow cytometric analysis. Surface staining was performed before cell fixation and permeabilization. Cells (50 μl; 1×10^6 cells/ml in washing buffer, 2% FBS with 0.1% NaN3 in PBS) were used for each staining. The cells were stained with isotype control mAb ([…]) and multicolor FITC-conjugated anti-CD20 mAb and PE-conjugated anti-CD38 mAb, or PerCP-Cy5.5 conjugated anti-CD44 mAb, PE-conjugated anti-CD83 mAb were used for day 4 activated B cells (CD20+CD38-cells), and day 4 PBs and day 7 PBs (CD20-CD38+), and other staining, analyzed by flow cytometry as per manufacturer's instructions. The intracellular staining of transcription factor proteins (BCL-6, IRF-4, BLIMP-1, PAX-5 and XBP-1) and IgJ was performed according to the manufacturer's recommendations."}, "[2]": {"test_system": "BCL-6, IRF-4, BLIMP-1, PAX5 and XBP-1", "experiment": "Transcription factor protein expression by intracellular flow cytometry, normal B cell differentiation", "assay_type": "cell-based, human", "experimental": "as §1, with “recommendations. Flow cytometric analysis was performed with a FACSCanto using FACSDiva 6 (BD Biosciences). For data analysis, Flowjo (Tree Star) software was used.” for “recommendations.”\nB cells were cultured as described in above and cells were harvested at day 4, day 7 for immunofluoresence staining. The cells were first stained for CD20 and CD38, and after cell permeabilization, stained for BCL-6, IRF-4, BLIMP-1, PAX5 and XBP-1, then were analyzed by gating on whole lymphocytes."}, "[3]": {"test_system": "IL-2", "experiment": "T-cell costimulation: IL-2 production (immobilized anti-CD3, ELISA)", "assay_type": "cell-based", "conditions": "Homo sapiens, 48 h, immobilized anti-CD3, 2 days, read-out: EC50 for co-stimulated IL-2 production by T cells", "experimental": "CRBN ubiquitination was measured in HEK293T cells, which were transfected with an amino-terminal His-biotin-tagged CRBN construct, then preincubated with compounds for one hour followed by treatment with the MG132 proteasome inhibitor (to arrest degradation of ubiquitinated proteins). Cells were lysed and processed to measure CRBN ubiquitination by SDS-PAGE and immunoblot analysis using an anti-ubiquitin antibody. Cell proliferation studies were conducted in enalidomide-sensitive and refractory multiple myeloma cells. […] T-cell costimulation was measured in purified primary human T cells stimulated using immobilized anti-CD3 antibody in cell culture for 2 days, and cytokine secretion was measured by ELISA."}, "[4]": {"test_system": "CD19+ B cells", "experiment": "Cell viability during plasmablast differentiation (live cell count)", "assay_type": "cell-based, human", "conditions": "for percentage of total viable cells: after 4 days", "text": "To determine live cell count, B cells (see section 8.2.3) were stained with 0.4% trypan blue and live cells counted using the Countess automated cell counter (Invitrogen) in duplicate samples."}, "[5]": {"test_system": "SSc fibroblasts", "experiment": "Fibrotic gene expression in SSc skin fibroblasts (real time PCR)", "assay_type": "cell-based, human", "conditions": "24 hours", "experimental": "Cell cultures: Human normal and scleroderma skin fibroblasts were cultured in DMEM containing 10% fetal bovine serum (FBS). The cells were maintained in a humidified 5% CO2, 95% air incubator at 37° C. After confluence was reached, the cells were harvested with 0.05% trypsin and subcultured. Cells were used in the 3rd-5th passage.\nExperimental design: Cells were grown to 70-80% confluence and placed into quiescent state by a reduction in serum concentration to 0.4% for overnight. The effects of the compound on TGFβ fibrotic effects and on NL and SSc fibrotic gene expression were tested.\nEffects of the compound on SSc-FB: SSc fibrobasts were treated with the compound at different concentration and gene expression levels of Collagen 1A1 (COL1), α-smooth muscle actin (α-SMA), fibronectin (FN), matrix metallopeptidase 1 (MMP1), plasminogen activator inhibitor (PAI), and DNA (cytosine-5-)-methyltransferase 1 (Dnmt1) were determined 24 hours later by real time PCR.\nQuantitative Real-Time PCR: Total RNA was extracted from cells using RNeasy kit. RNA concentration was measured and 1 ug of RNA was reverse transcribed to cDNA using RT-First strand kit. The cDNA was then amplified using respective primers and Power SYBR Green PCR Master Mix. The amplicon (150-200 bp) was detected by ABI 7500 Real Time PCR System. All the target genes were normalized to GAPDH and relative fold changes were calculated. Each sample was assessed in triplicate."}}, "data": [{"smiles": "O=C1CC[C@H](N2Cc3c(OCc4ccc(CN5CCOCC5)cc4)cccc3C2=O)C(=O)N1", "note": "[Test compound, (S)-3-[4-(4-morphlin-4-ylmethylbenzyloxy)-1-oxo-1,3-dihydro-isoindo-2-yl]piperidine-2,6-dione]", "values": [{"measurement": "percentage of CD20+CD38- activated B cells", "setting": "[1]", "value": "increased"}, {"measurement": "percentage of CD20-CD38+ plasmablasts", "setting": "[1]", "value": "dose-dependently reduced"}, {"measurement": "percentage of large size cells (gate p2)", "setting": "[1]; Day 4, 2 nM, DMSO 35.5%", "value": 31.2, "unit": "%"}, {"measurement": "CD20−CD38++ plasmablasts/plasma cells, %", "setting": "[1]; Day 4, 20 nM, DMSO 25.9 ± 2.4", "value": "4.8 ± 2.3", "unit": "%"}, {"measurement": "CD20−CD38++ plasmablasts/plasma cells, %", "setting": "[1]; Day 4, 20 nM, DMSO 25.9 ± 2.4, listed as test compound", "value": 4.8, "unit": "%"}, {"measurement": "CD20+CD38− activated B cells, %", "setting": "[1]; Day 4, 20 nM, DMSO 42.1 ± 1.5", "value": "57.9 ± 11.5", "unit": "%"}, {"measurement": "CD20+CD38− activated B cells, %", "setting": "[1]; Day 4, 20 nM, DMSO 42.1 ± 1.5, listed as test compound", "value": 57.9, "unit": "%"}, {"measurement": "percentage of large size cells (gate p2)", "setting": "[1]; Day 4, 20 nM, DMSO 35.5%", "value": 23.1, "unit": "%"}, {"measurement": "percentage of large size cells (gate p2)", "setting": "[1]; Day 4, 200 nM, DMSO 35.5%", "value": 20.4, "unit": "%"}, {"measurement": "CD20+CD38+ intermediated cells, %", "setting": "[1]; Day 4, DMSO 14.7 ± 3.1", "value": "18.3 ± 5.5", "unit": "%"}, {"measurement": "percentage of large size cells (gate p2)", "setting": "[1]; Day 7, 2 nM, DMSO 34.9%", "value": 34.9, "unit": "%"}, {"measurement": "CD20+CD38− activated B cells, %", "setting": "[1]; Day 7, 20 nM, DMSO 12.5 ± 5.7", "value": "50.5 ± 8.6", "unit": "%"}, {"measurement": "CD20+CD38− activated B cells, %", "setting": "[1]; Day 7, 20 nM, DMSO 12.5 ± 5.7, listed as test compound", "value": 50.5, "unit": "%"}, {"measurement": "CD20−CD38++ plasmablasts/plasma cells, %", "setting": "[1]; Day 7, 20 nM, DMSO 54.8 ± 5.0", "value": "9.7 ± 5.4", "unit": "%"}, {"measurement": "CD20−CD38++ plasmablasts/plasma cells, %", "setting": "[1]; Day 7, 20 nM, DMSO 54.8 ± 5.0, listed as test compound", "value": 9.7, "unit": "%"}, {"measurement": "percentage of large size cells (gate p2)", "setting": "[1]; Day 7, 20 nM, DMSO 34.9%", "value": 19.9, "unit": "%"}, {"measurement": "percentage of large size cells (gate p2)", "setting": "[1]; Day 7, 200 nM, DMSO 34.9%", "value": 11.94, "unit": "%"}, {"measurement": "CD20+CD38+ intermediated cells, %", "setting": "[1]; Day 7, DMSO 22.8 ± 5.1", "value": "23 ± 7.7", "unit": "%"}, {"measurement": "plasmablast population (CD20-CD38+)", "setting": "[1]; 2 nM", "value": 27.3, "unit": "%"}, {"measurement": "plasmablast population (CD20-CD38+)", "setting": "[1]; 20 nM", "value": 2.1, "unit": "%"}, {"measurement": "plasmablast population (CD20-CD38+)", "setting": "[1]; 200 nM", "value": 0.4, "unit": "%"}, {"measurement": "large size cell population (gate p2)", "setting": "[1]; normal B cell differentiation assay", "value": "dose-dependently depleted"}, {"measurement": "BLIMP-1 protein expression", "setting": "[2]; Day 4, 20 nM", "value": "significantly decreased"}, {"measurement": "IRF-4 protein expression", "setting": "[2]; Day 4, 20 nM", "value": "significantly decreased"}, {"measurement": "XBP-1 protein expression", "setting": "[2]; Day 4, 20 nM", "value": "significantly decreased"}, {"measurement": "BCL-6 protein expression", "setting": "[2]; Day 7, 20 nM", "value": "significantly increased"}, {"measurement": "EC50", "setting": "[3]", "value": "~0.29", "unit": "nM"}, {"measurement": "percentage of total viable cells", "setting": "[4]; 20 nM", "value": "69.6 % of control"}, {"measurement": "percentage of total viable cells", "setting": "[4]; 200 nM", "value": "35.8 % of control"}, {"measurement": "B cell viability", "setting": "[4]; first 4 days of culture", "value": "reduced"}, {"measurement": "expression of COL1 mRNA", "setting": "[5]", "value": "dose dependently reduced"}, {"measurement": "expression of Dnmt1", "setting": "[5]", "value": "dose dependently reduced"}, {"measurement": "expression of FN mRNA", "setting": "[5]", "value": "dose dependently reduced"}, {"measurement": "expression of MMP-1", "setting": "[5]", "value": "dose dependently increased"}, {"measurement": "expression of PAI", "setting": "[5]", "value": "dose dependently reduced"}, {"measurement": "expression of aSMA mRNA", "setting": "[5]", "value": "dose dependently reduced"}]}]}
